Measurements taken from patent US6147100A, “Pyrrolidine derivatives having phospholipase A2 inhibitory activity” (Shionogi & Co., Ltd., priority 1997, dated 2000).

Assays:
[1] = system: production of prostaglandin E2 by human fibroblasts; test: Inhibition of Production of Prostaglandin E2 in Human Fibroblasts (IL-1 stimulation); type: cell-based; details: Fibroblast; human fibroblasts under stimulation with IL-1
Procedure, shortened: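 Human fibroblasts stimulated with IL-1, with prostaglandin E2 production measured in the presence of compound as a cellular read-out of cPLA2 inhibition.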

[2] = molecular target: T1, cPLA2 (Homo sapiens, UniProt P47712); test: cPLA2 Inhibitory Activity; type: biochemical; details: 1-palmitoyl-2-[14C]-arachidonoyl-sn-glycero-3-phosphocholine 2.5 μM, sn-1,2-dioleoylglycerol 1.25 μM; pH 7.5, 15 min at 37° C.
T1 sequence (P47712 1-749): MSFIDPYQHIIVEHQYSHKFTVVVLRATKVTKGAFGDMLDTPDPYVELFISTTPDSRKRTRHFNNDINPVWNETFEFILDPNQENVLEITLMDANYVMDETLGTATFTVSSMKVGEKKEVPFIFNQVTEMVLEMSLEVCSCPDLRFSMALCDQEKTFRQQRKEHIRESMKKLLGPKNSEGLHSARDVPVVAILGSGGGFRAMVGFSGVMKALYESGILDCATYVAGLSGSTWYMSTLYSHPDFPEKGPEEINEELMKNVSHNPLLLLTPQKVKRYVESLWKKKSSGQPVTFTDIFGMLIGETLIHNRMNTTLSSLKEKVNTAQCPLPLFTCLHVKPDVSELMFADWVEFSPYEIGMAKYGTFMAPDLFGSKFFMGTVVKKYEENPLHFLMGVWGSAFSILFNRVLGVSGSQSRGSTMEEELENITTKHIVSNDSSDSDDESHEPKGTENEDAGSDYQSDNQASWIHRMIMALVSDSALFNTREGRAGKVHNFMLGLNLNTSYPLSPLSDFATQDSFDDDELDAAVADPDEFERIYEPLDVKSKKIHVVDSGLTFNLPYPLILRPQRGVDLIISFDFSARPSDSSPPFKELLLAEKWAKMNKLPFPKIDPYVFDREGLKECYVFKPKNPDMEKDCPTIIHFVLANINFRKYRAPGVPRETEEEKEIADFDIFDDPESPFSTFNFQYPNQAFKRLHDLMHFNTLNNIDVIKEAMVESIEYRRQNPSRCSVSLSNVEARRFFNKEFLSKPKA
Procedure, shortened: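 Radiometric assay in 50 mM HEPES pH 7.5 with 1 mM CaCl2, 150 mM NaCl, 0.1 mg/ml BSA and 1.7 mM DTT; compound and substrate added, reaction started with enzyme, 15 min at 37° C. Released fatty acids extracted (Dole method), counted by liquid scintillation versus no-compound control.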

IC50 [2] [µM] | SMILES | IC50 [1] [µM]
0.053 | O=C(/C=C/c1ccc(/C=C2\SC(=O)NC2=O)cc1)NC[C@@H]1C[C@@H](OCc2ccccc2-c2ccccc2)CN1C(=O)c1ccccc1C(=O)c1ccc(F)cc1 [Compound A-52] | 0.62
0.2 | O=C1NC(=O)/C(=C/c2ccc(C(=O)NC[C@@H]3C[C@H](OCc4ccccc4-c4ccccc4)CN3C(=O)c3ccccc3C(=O)c3ccc(F)cc3)cc2)S1 [Compound Q-3] | 0.49
0.78 | CN(C[C@@H]1C[C@@H](OCc2ccccc2-c2ccccc2)CN1C(=O)c1ccccc1C(=O)c1ccc(F)cc1)C(=O)c1ccc(/C=C2\SC(=O)NC2=O)cc1 [Compound G-1] | 0.98
1.4 | O=C1NC(=O)/C(=C/c2ccc(C(=O)NC[C@@H]3C[C@@H](OCc4ccc(F)cc4F)CN3C(=O)c3ccccc3C(=O)c3ccccc3)cc2)S1 [Compound A-3] | 0.9
0.035 | COc1cccc(-c2ccccc2OC(C)C)c1O[C@@H]1C[C@@H](CNC(=O)c2ccc(/C=C3\SC(=O)NC3=O)cc2)N(C(=O)c2ccccc2C(=O)c2ccc(F)cc2)C1 [Compound A-122] | 1.4
0.033 | O=C1NC(=S)S/C1=C\c1ccc(C(=O)NC[C@@H]2C[C@@H](SCc3ccccc3-c3ccccc3)CN2C(=O)c2ccccc2C(=O)c2ccc(F)cc2)s1 [Compound I-8] | 1
0.0041 | CC(C)CN(C(c1ccccc1)c1ccccc1)[C@@H]1C[C@@H](CNC(=O)c2ccc(/C=C3\SC(=O)NC3=O)cc2)N(C(=O)c2ccccc2C(=O)c2ccc(F)cc2F)C1 [Compound M-17] | 1
0.033 | O=C1NC(=O)/C(=C/c2ccc(C(=O)NC[C@@H]3C[C@@H](Oc4cccc(-c5ccc6ccccc6c5)c4)CN3C(=O)c3ccccc3C(=O)c3ccc(F)cc3)cc2)S1 [Compound A-84] | 0.25
0.055 | O=C1NC(=O)/C(=C/c2ccc(S(=O)(=O)NC[C@@H]3C[C@@H](SCc4ccccc4-c4ccccc4)CN3C(=O)c3ccccc3C(=O)c3ccc(F)cc3)cc2)S1 [Compound I-3] | 0.98
0.071 | O=C1NC(=O)/C(=C/c2ccc(C(=O)NC[C@@H]3C[C@@H](OCc4ccccc4I)CN3C(=O)c3ccccc3C(=O)c3ccc(F)cc3)cc2)S1 [Compound A-34] | 0.48
0.1 | O=C1NC(=O)/C(=C/c2ccc(C(=O)NC[C@@H]3C[C@H](SCc4ccccc4-c4ccccc4)CN3C(=O)c3ccccc3C(=O)c3ccc(F)cc3)cc2)S1 [Compound I-1] | 0.26
0.28 | O=C1NC(=S)S/C1=C\c1ccc(C(=O)NC[C@@H]2C[C@@H](OCc3ccccc3-c3ccccc3)CN2C(=O)c2ccccc2C(=O)c2ccc(Cl)cc2)cc1 [Compound A-28] | 1.4
0.053 | O=C1NC(=O)/C(=C/c2ccc(C(=O)NC[C@@H]3C[C@@H](Oc4ccccc4Cc4ccccc4)CN3C(=O)c3ccccc3C(=O)c3ccc(F)cc3)cc2)S1 [Compound A-83] | 0.23
1.1 | O=C1NC(=S)S/C1=C\c1ccc(CC[C@@H]2C[C@@H](OCc3ccccc3-c3ccccc3)CN2C(=O)c2ccccc2C(=O)c2ccc(F)cc2)cc1 [Compound E-1] | 2.2
0.19 | CC(C)(C)c1ccccc1O[C@@H]1C[C@@H](CNC(=O)c2ccc(/C=C3\SC(=O)NC3=O)cc2)N(C(=O)c2ccccc2C(=O)c2ccc(F)cc2)C1 [Compound A-75] | 2.2
0.053 | O=C1NC(=O)/C(=C/c2ccc(C(=O)NC[C@@H]3C[C@@H](Oc4cc(-c5ccccc5)c5ccccc5c4)CN3C(=O)c3ccccc3C(=O)c3ccc(F)cc3)cc2)S1 [Compound A-81] | 0.35
0.05 | O=C1NC(=O)/C(=C/c2ccc(C(=O)NC[C@@H]3C[C@@H](Oc4ccc(/C=C/c5ccccc5)cc4)CN3C(=O)c3ccccc3C(=O)c3ccc(F)cc3)cc2)S1 [Compound A-82] | 0.045
1.6 | O=C1NC(=O)/C(=C/c2ccc(C(=O)NC[C@@H]3C[C@@H](OCc4ccccc4-c4ccccc4)CN3C(=O)c3ccccc3C(=O)c3ccoc3)cc2)S1 [Compound A-17] | 0.7

IC50 [2] [µM] | SMILES | IC50 [1] [µM]
0.03 | O=C1NC(=O)/C(=C/c2ccc(C(=O)NC[C@@H]3C[C@@H](Oc4ccccc4Oc4ccccc4)CN3C(=O)c3ccccc3C(=O)c3ccc(F)cc3)cc2)S1 [Compound A-119] | 2.8
0.2 | O=C1NC(=O)/C(=C/c2ccc(C(=O)NC[C@@H]3C[C@@H](Cc4ccccc4-c4ccccc4)CN3C(=O)c3ccccc3C(=O)c3ccc(F)cc3)cc2)S1 [Compound O-1] | 0.76
0.066 | O=C1NC(=O)/C(=C/c2ccc(C(=O)NC[C@@H]3C[C@@H](Oc4ccccc4-c4cccc([N+](=O)[O-])c4)CN3C(=O)c3ccccc3C(=O)c3ccc(F)cc3)cc2)S1 [Compound A-111] | 0.47
0.43 | Cc1ccc(C(=O)c2ccccc2C(=O)N2C[C@H](OCc3ccccc3-c3ccccc3)C[C@H]2CNC(=O)c2ccc(/C=C3\SC(=S)NC3=O)cc2)cc1 [Compound A-27] | 1.2
0.024 | O=C1NC(=O)/C(=C/c2ccc(C(=O)NC[C@@H]3C[C@@H](Oc4ccccc4-c4cccc5ccccc45)CN3C(=O)c3ccccc3C(=O)c3ccc(F)cc3)cc2)S1 [Compound A-94] | 1.4
0.3 | O=C1NC(=O)/C(=C/c2ccc(C(=O)NC[C@@H]3C[C@@H](OCc4ccc(-c5ccccc5)cc4)CN3C(=O)c3ccccc3C(=O)c3ccccc3)cc2)S1 [Compound A-4] | 0.21
0.14 | CN(Cc1ccccc1-c1ccccc1)[C@@H]1C[C@@H](CNC(=O)c2ccc(/C=C3\SC(=O)NC3=O)cc2)N(C(=O)c2ccccc2C(=O)c2ccc(F)cc2)C1 [Compound M-6] | 1.5
0.065 | O=C1NC(=O)/C(=C/c2ccc(C(=O)NC[C@@H]3C[C@@H](Oc4ccccc4-c4cccc(-c5ccccc5)c4)CN3C(=O)c3ccccc3C(=O)c3ccc(F)cc3)cc2)S1 [Compound A-112] | 1.7
0.023 | O=C1NC(=S)S/C1=C\c1ccc(NC(=O)[C@@H]2C[C@@H](SCc3ccccc3-c3ccccc3)CN2C(=O)c2ccccc2C(=O)c2ccc(F)cc2)cc1 [Compound J-2] | 0.96
0.37 | O=C1NC(=O)/C(=C/c2ccc(C(=O)NC[C@@H]3C[C@@H](OCc4ccccc4-c4ccccc4)CN3C(=O)c3ccccc3C(=O)C3CCCCC3)cc2)S1 [Compound A-14] | 0.33
0.58 | Cc1ccccc1CO[C@@H]1C[C@@H](CNC(=O)c2ccc(/C=C3\SC(=O)NC3=O)cc2)N(C(=O)c2ccccc2C(=O)c2ccc(F)cc2)C1 [Compound A-5] | 0.26
0.01 | CC(C)c1ccccc1-c1ccccc1O[C@@H]1C[C@@H](CNC(=O)c2ccc(/C=C3\SC(=O)NC3=O)cc2)N(C(=O)c2ccccc2C(=O)c2ccc(F)cc2)C1 [Compound A-115] | 4.6
0.02 | O=C1NC(=O)/C(=C/c2ccc(C(=O)NC[C@@H]3C[C@@H](Oc4ccc5cc(-c6ccccc6)ccc5c4)CN3C(=O)c3ccccc3C(=O)c3ccc(F)cc3)cc2)S1 [Compound A-79] | 0.31
0.048 | O=C1NC(=O)/C(=C/c2ccc(C(=O)NC[C@@H]3C[C@@H](OCc4ccccc4-c4ccc5ccccc5c4)CN3C(=O)c3ccccc3C(=O)c3ccc(F)cc3)cc2)S1 [Compound A-36] | 0.18
2.51 | O=C1NC(=O)/C(=C/c2ccc(C(=O)NC[C@H]3C[C@@H](SCc4ccccc4-c4ccccc4)CN3C(=O)c3ccccc3C(=O)c3ccc(F)cc3)cc2)S1 [Compound Q-1] | 1.2
0.079 | O=C1NC(=O)/C(=C/c2ccc(C(=O)NC[C@@H]3C[C@@H](OCc4ccccc4-c4ccccc4)CN3C(=O)c3ccccc3C(=O)c3ccc(F)cc3)cc2)S1 [Compound A-16] | 0.26
0.048 | O=C1NC(=O)/C(=C/c2ccc(C(=O)NC[C@@H]3C[C@@H](OCc4ccccc4-c4ccccc4)CN3C(=O)c3ccccc3C(=O)c3ccc(F)cc3F)cc2)S1 [Compound A-25] | 0.8
